Key:
Assay in all cases: KINOMEscan competition binding
Settings in all cases: compound 10.0 µM
MAPK14 (human) = MAPK14 (human) (UniProt Q16539)
ERBB2 (human) = ERBB2 (human) (UniProt P04626)
SRPK3 (human) = SRPK3 (human) (UniProt Q9UPE1)
ADCK3 (human) = ADCK3 (human) (UniProt Q8NI60)
CLK2 (human) = CLK2 (human) (UniProt P49760)
PIK3CD (human) = PIK3CD (human) (UniProt O00329)
TLK2 (human) = TLK2 (human) (UniProt Q86UE8)
RPS6KA6 KD2 (human) = RPS6KA6 KD2 (human) (UniProt Q9UK32)
CDC2L2 (human) = CDC2L2 (human) (UniProt Q9UQ88)
MST4 (human) = MST4 (human) (UniProt Q9P289)
AKT2 (human) = AKT2 (human) (UniProt P31751)
SRMS (human) = SRMS (human) (UniProt Q9H3Y6)
DDR2 (human) = DDR2 (human) (UniProt Q16832)
FRK (human) = FRK (human) (UniProt P42685)
ULK3 (human) = ULK3 (human) (UniProt Q6PHR2)
LIMK2 (human) = LIMK2 (human) (UniProt P53671)
PRKD1 (human) = PRKD1 (human) (UniProt Q15139)
TGFBR1 (human) = TGFBR1 (human) (UniProt P36897)
RET (human) = RET (human) (UniProt P07949)
AURKB (human) = AURKB (human) (UniProt Q96GD4)
MAPKAPK5 (human) = MAPKAPK5 (human) (UniProt Q8IW41)
MAP3K5 (human) = MAP3K5 (human) (UniProt Q99683)
CDC42BPB (human) = CDC42BPB (human) (UniProt Q9Y5S2)
DAPK2 (human) = DAPK2 (human) (UniProt Q9UIK4)
ACVR2A (human) = ACVR2A (human) (UniProt P27037)
MAPK15 (human) = MAPK15 (human) (UniProt Q8TD08)
CDK3 (human) = CDK3 (human) (UniProt Q00526)
PRKG1 (human) = PRKG1 (human) (UniProt Q13976)
LATS1 (human) = LATS1 (human) (UniProt O95835)
HIPK1 (human) = HIPK1 (human) (UniProt Q86Z02)
CAMK2B (human) = CAMK2B (human) (UniProt Q13554)
FGR (human) = FGR (human) (UniProt P09769)
FGFR3 (human) = FGFR3 (human) (UniProt P22607)
PKN2 (human) = PKN2 (human) (UniProt Q16513)
ULK2 (human) = ULK2 (human) (UniProt Q8IYT8)
PHKG1 (human) = PHKG1 (human) (UniProt Q16816)
RPS6KA6 KD1 (human) = RPS6KA6 KD1 (human) (UniProt Q9UK32)
DYRK1B (human) = DYRK1B (human) (UniProt Q9Y463)
ERBB4 (human) = ERBB4 (human) (UniProt Q15303)
MAPK1 (human) = MAPK1 (human) (UniProt P28482)

Chain of ULK3 (human) (Q6PHR2 whole entry, looked up): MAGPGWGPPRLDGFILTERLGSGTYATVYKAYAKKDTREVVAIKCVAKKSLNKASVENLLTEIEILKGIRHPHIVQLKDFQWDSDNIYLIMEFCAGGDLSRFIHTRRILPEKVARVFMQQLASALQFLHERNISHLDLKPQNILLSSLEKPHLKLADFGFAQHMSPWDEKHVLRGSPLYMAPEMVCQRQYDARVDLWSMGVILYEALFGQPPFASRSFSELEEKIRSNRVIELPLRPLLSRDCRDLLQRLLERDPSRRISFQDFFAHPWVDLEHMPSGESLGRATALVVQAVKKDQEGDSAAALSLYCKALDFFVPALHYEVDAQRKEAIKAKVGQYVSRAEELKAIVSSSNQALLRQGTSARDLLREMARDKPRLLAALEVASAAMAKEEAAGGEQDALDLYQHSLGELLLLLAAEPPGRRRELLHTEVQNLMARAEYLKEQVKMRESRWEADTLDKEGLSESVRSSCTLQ
Chain of RPS6KA6 KD2 (human) (Q9UK32 whole entry, looked up): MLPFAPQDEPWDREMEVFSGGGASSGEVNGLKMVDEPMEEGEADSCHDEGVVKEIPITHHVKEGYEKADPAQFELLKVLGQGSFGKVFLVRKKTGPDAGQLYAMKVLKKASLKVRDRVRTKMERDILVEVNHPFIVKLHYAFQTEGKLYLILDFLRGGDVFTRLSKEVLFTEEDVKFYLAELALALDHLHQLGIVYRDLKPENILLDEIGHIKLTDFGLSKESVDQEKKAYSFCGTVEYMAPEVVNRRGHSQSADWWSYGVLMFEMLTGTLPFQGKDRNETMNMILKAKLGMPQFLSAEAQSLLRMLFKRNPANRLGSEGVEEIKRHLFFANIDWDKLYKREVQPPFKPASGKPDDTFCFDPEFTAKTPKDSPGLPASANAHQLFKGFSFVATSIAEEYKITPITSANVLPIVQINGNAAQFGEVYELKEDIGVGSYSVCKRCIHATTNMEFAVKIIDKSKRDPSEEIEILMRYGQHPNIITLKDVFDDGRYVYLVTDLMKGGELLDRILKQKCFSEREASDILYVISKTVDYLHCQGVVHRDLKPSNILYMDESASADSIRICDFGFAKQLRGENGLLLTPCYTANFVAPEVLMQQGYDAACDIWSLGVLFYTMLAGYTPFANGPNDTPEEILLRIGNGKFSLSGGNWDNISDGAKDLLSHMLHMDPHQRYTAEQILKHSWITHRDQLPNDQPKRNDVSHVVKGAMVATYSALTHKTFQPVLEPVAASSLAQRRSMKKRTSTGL
Chain of RPS6KA6 KD1 (human) (Q9UK32 whole entry, looked up): as above
Chain of PRKG1 (human) (Q13976 whole entry, looked up): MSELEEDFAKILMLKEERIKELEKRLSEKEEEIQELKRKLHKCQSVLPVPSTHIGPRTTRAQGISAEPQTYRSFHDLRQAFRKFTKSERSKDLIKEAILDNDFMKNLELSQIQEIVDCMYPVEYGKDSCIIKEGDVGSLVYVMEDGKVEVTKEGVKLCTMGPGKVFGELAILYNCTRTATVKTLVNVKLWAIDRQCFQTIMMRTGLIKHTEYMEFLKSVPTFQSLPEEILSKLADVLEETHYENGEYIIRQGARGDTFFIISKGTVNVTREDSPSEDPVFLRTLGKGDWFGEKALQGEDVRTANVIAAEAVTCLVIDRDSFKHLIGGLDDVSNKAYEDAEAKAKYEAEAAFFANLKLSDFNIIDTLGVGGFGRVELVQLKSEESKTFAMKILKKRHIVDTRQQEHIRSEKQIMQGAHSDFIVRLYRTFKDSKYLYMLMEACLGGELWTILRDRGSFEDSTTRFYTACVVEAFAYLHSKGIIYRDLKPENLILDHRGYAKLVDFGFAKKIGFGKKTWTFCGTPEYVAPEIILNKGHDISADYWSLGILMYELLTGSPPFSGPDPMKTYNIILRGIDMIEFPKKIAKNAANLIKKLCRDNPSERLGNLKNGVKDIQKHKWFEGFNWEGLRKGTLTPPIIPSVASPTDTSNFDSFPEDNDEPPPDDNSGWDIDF
Chain of LATS1 (human) (O95835 whole entry, looked up): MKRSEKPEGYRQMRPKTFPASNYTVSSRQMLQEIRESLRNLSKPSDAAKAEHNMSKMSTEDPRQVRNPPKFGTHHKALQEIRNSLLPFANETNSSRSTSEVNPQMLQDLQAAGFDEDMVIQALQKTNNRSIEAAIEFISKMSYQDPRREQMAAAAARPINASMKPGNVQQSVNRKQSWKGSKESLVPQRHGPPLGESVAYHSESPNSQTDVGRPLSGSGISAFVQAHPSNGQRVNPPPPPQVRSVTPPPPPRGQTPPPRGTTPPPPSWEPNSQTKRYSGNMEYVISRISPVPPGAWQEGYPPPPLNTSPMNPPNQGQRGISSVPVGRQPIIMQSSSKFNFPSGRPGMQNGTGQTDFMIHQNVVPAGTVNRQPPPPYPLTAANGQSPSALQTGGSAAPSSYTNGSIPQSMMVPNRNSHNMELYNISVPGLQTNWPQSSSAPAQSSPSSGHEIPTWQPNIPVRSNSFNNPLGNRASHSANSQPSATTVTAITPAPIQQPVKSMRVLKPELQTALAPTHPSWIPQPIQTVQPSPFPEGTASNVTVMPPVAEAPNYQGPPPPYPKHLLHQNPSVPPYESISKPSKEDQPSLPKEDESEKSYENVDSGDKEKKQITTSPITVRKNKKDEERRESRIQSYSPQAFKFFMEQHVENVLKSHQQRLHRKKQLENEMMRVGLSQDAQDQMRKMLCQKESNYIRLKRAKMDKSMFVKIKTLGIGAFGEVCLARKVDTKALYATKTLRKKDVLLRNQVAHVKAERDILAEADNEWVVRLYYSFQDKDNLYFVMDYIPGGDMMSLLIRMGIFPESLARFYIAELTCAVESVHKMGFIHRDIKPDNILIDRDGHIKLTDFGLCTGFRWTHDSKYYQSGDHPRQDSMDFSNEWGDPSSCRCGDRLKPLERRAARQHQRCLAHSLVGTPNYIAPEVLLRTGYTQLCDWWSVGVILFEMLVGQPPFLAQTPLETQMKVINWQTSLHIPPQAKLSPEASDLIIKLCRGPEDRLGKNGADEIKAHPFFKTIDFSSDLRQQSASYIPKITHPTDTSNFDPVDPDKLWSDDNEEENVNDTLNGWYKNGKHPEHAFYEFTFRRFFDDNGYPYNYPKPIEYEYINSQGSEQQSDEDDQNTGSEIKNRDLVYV
Chain of SRPK3 (human) (Q9UPE1 whole entry, looked up): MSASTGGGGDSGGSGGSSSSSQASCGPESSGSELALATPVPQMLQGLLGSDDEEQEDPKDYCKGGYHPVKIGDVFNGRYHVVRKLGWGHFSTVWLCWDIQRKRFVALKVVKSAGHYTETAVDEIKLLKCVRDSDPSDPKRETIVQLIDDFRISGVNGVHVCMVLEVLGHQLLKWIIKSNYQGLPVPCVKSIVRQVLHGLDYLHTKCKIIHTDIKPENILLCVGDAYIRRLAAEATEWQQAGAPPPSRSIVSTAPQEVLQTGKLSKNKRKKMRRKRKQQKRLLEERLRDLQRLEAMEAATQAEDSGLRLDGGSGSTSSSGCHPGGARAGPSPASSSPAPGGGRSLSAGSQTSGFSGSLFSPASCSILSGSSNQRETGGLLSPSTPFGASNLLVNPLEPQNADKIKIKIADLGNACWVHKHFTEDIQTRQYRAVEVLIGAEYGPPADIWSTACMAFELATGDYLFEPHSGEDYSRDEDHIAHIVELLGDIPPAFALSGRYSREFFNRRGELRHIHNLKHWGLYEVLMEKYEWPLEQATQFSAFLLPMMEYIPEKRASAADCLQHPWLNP
Chain of AKT2 (human) (P31751 whole entry, looked up): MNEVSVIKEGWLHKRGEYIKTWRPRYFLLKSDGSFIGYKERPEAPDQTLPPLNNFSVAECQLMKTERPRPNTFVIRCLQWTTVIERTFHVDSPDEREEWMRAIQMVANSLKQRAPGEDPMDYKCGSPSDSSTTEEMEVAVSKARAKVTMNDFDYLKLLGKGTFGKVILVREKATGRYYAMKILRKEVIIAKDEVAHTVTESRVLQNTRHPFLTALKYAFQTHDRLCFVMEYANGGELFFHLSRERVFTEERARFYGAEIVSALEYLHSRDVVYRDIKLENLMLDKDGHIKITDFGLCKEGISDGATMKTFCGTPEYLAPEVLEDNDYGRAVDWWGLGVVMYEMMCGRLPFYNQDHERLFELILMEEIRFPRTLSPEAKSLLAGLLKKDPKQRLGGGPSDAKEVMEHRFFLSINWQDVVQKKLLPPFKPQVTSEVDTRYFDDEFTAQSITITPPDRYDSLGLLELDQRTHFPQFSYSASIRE
Chain of CDK3 (human) (Q00526 whole entry, looked up): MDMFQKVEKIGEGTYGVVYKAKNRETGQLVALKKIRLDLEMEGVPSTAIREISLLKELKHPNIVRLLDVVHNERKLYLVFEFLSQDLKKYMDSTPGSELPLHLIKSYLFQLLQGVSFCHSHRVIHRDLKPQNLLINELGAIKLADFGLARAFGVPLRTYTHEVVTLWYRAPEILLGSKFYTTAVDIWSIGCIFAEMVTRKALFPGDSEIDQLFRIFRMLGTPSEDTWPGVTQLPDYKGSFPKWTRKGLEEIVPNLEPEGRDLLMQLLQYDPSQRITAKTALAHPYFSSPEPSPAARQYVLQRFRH
Chain of ACVR2A (human) (P27037 whole entry, looked up): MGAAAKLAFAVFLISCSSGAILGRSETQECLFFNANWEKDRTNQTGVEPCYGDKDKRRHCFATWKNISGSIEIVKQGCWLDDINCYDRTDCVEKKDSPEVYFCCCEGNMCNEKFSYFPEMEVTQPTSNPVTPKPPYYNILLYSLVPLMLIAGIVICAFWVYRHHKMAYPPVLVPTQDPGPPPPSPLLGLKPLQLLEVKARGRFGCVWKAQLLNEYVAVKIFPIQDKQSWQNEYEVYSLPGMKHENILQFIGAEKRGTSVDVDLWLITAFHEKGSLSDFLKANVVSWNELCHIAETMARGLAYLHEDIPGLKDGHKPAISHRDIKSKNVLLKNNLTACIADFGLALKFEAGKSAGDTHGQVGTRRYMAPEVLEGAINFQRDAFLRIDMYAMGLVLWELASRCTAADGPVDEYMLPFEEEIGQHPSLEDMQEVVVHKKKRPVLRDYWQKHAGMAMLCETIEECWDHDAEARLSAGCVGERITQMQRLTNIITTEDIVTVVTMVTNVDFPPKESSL

| Structure (SMILES) | kinase still bound, per cent of control (MAPK14 (human)) | kinase still bound, per cent of control (ERBB2 (human)) | kinase still bound, per cent of control (SRPK3 (human)) | kinase still bound, per cent of control (ADCK3 (human)) | kinase still bound, per cent of control (CLK2 (human)) | kinase still bound, per cent of control (PIK3CD (human)) | kinase still bound, per cent of control (TLK2 (human)) | kinase still bound, per cent of control (RPS6KA6 KD2 (human)) | kinase still bound, per cent of control (CDC2L2 (human)) | kinase still bound, per cent of control (MST4 (human)) | kinase still bound, per cent of control (AKT2 (human)) | kinase still bound, per cent of control (SRMS (human)) | kinase still bound, per cent of control (DDR2 (human)) | kinase still bound, per cent of control (FRK (human)) | kinase still bound, per cent of control (ULK3 (human)) | kinase still bound, per cent of control (LIMK2 (human)) | kinase still bound, per cent of control (PRKD1 (human)) | kinase still bound, per cent of control (TGFBR1 (human)) | kinase still bound, per cent of control (RET (human)) | kinase still bound, per cent of control (AURKB (human)) | further results |
| --- | --- | --- | --- | --- | --- | --- | --- | --- | --- | --- | --- | --- | --- | --- | --- | --- | --- | --- | --- | --- | --- |
| OCCCNc1cc(-c2ccnc(Nc3cccc(Cl)c3)n2)ccn1 | 100% | 100% | 100% | 100% | 0.3% | 100% | 100% | 100% | 100% | 100% | 100% | 100% | 100% | 100% | 100% | 100% | 100% | 100% | 100% | 100% | kinase still bound, per cent of control (MAPKAPK5 (human)): 100%; kinase still bound, per cent of control (MAP3K5 (human)): 100%; kinase still bound, per cent of control (CDC42BPB (human)): 100%; kinase still bound, per cent of control (DAPK2 (human)): 100%; kinase still bound, per cent of control (ACVR2A (human)): 100%; kinase still bound, per cent of control (MAPK15 (human)): 2%; kinase still bound, per cent of control (CDK3 (human)): 100%; kinase still bound, per cent of control (PRKG1 (human)): 100%; kinase still bound, per cent of control (LATS1 (human)): 100%; kinase still bound, per cent of control (HIPK1 (human)): 4.6%; kinase still bound, per cent of control (CAMK2B (human)): 100%; kinase still bound, per cent of control (FGR (human)): 100%; kinase still bound, per cent of control (FGFR3 (human)): 100%; kinase still bound, per cent of control (PKN2 (human)): 100%; kinase still bound, per cent of control (ULK2 (human)): 100%; kinase still bound, per cent of control (PHKG1 (human)): 100%; kinase still bound, per cent of control (RPS6KA6 KD1 (human)): 100%; kinase still bound, per cent of control (DYRK1B (human)): 4%; kinase still bound, per cent of control (ERBB4 (human)): 100%; kinase still bound, per cent of control (MAPK1 (human)): 100% |
| Cc1ccc(NC(=O)c2cccc(C(C)(C)C#N)c2)cc1Nc1ccc2ncn(C)c(=O)c2c1 | 0% | 72% | 100% | 100% | 100% | 99% | 100% | 3.5% | 5.4% | 100% | 100% | 7.4% | 21% | 2.8% | 97% | 95% | 67% | 100% | 0.15% | 100% | kinase still bound, per cent of control (MAPKAPK5 (human)): 100%; kinase still bound, per cent of control (MAP3K5 (human)): 100%; kinase still bound, per cent of control (CDC42BPB (human)): 100%; kinase still bound, per cent of control (DAPK2 (human)): 100%; kinase still bound, per cent of control (ACVR2A (human)): 100%; kinase still bound, per cent of control (MAPK15 (human)): 100%; kinase still bound, per cent of control (CDK3 (human)): 100%; kinase still bound, per cent of control (PRKG1 (human)): 100%; kinase still bound, per cent of control (LATS1 (human)): 100%; kinase still bound, per cent of control (HIPK1 (human)): 100%; kinase still bound, per cent of control (CAMK2B (human)): 100%; kinase still bound, per cent of control (FGR (human)): 12%; kinase still bound, per cent of control (FGFR3 (human)): 100%; kinase still bound, per cent of control (PKN2 (human)): 100%; kinase still bound, per cent of control (ULK2 (human)): 100%; kinase still bound, per cent of control (PHKG1 (human)): 100%; kinase still bound, per cent of control (RPS6KA6 KD1 (human)): 87%; kinase still bound, per cent of control (DYRK1B (human)): 100%; kinase still bound, per cent of control (ERBB4 (human)): 34%; kinase still bound, per cent of control (MAPK1 (human)): 100% |

From the kinase profiling compilation of Christmann-Franck et al. (2016)
